Assay results: patent US9060516B2, “Method for controlling aquatic weeds” (BASF SE, priority 2005, dated 2015)

Experiments:
[1] = test system: Mixed population of submersed weed species: Hydrilla verticillata and Egeria densa; experiment: Greenhouse test, static exposure of a mixed population of submersed weed species to quinmerac and quinclorac; type: in vivo; settings: for Shoot Fresh / Shoot Length: static exposure, 12 weeks after treatment; for Shoot Fresh: control 6.8 g, LSD at 0.05 = 3.1; for Shoot Length: control 37.3 cm, LSD at 0.05 = 17.4
Description: To begin the experiment, containers were filled and maintained with a volume of 4000 ml of distilled water that was maintained at room temperature (24° C.). To each container, established weed plants (potted in sand mixture) were transferred into the water column. Plants were selected for uniformity and length of shoot growth (approx 15 cm). Plants were allowed to equilibrate in the containers for 24 hrs prior to herbicide treatment. Experimental treatments included an untreated control, quinmerac at 100, 250, and 500 ppb, as well as, quinclorac at 250 ppb of actual acid equivalent of herbicide. Treatments were applied to water columns by the use of a pipette. Amount of herbicide applied was based on the total volume of the containers (4000 ml). After initial herbicide treatment, the water columns were gently stirred to ensure uniform distribution. Treatments were arranged as a completely random design with 3 replications. Each container was considered the experimental unit. Greenhouse conditions were maintained at 24/18° C. (day/night) cycle for the duration of the experiment. Natural day length was supplemented with halogen lighting to provide a 14 hr photoperiod. Water level in the containers was periodically checked and maintained at the 4000 ml level for the duration of the study. After 12 weeks of exposure, weed shoot length and fresh weights were measured to ascertain herbicide effects.

Hydrilla verticillata = experiment: Greenhouse test, static exposure of Hydrilla verticillata to quinclorac in water columns; type: in vivo; settings: for Hydrilla Shoot Length: static exposure, 11 weeks after treatment, control 30.4 cm, LSD at 0.05 = 11.5
Description: To begin the experiment, PVC cylinders were filled and maintained with a volume of 4000 ml of dichlorinated water that was maintained at room temperature (24° C.). To each cylinder, an established hydrilla plant (potted in sand mixture) was transferred into the water column. Hydrilla plants were selected for uniformity and length of shoot growth (approx 15 cm). Plants were allowed to equilibrate in the columns for 24 hrs prior to herbicide treatment. Experimental treatments included an untreated control, and quinclorac at 50, 250 and 500 ppb of actual acid equivalent of herbicide. Treatments were applied to water columns by the use of a pipette. Amount of herbicide applied was based on the total volume of the cylinders (4000 ml). After initial herbicide treatment, the water columns were gently stirred to ensure uniform distribution. Treatments were arranged as a completely random design with 3 replications. Each cylinder was considered the experimental unit. Greenhouse conditions were maintained at 24/18° C. (day/night) cycle for the duration of the experiment. Natural day length was supplemented with halogen lighting to provide a 14 hr photoperiod. Water level in the cylinders was periodically checked and maintained at the 4000 ml level for the duration of the study. After 11 weeks of exposure, hydrilla shoot lengths were measured to ascertain herbicide effects.

SMILES	Shoot Fresh ([1]; 250 ppb acid equivalent) [grams]	Shoot Length ([1]; 250 ppb acid equivalent) [cm]	Reduction in both shoot length and fresh weight vs. the control ([1]; 250 ppb, 12 weeks of exposure)	Hydrilla Shoot Length (Hydrilla verticillata; 50 ppb acid equivalent) [cm]	Hydrilla Shoot Length (Hydrilla verticillata; 250 ppb acid equivalent) [cm]	Hydrilla Shoot Length (Hydrilla verticillata; 500 ppb acid equivalent) [cm]	Effect on the growth of hydrilla (Hydrilla verticillata; after the 11 week exposure period, 50-500 ppb)	Visual symptomology (Hydrilla verticillata; after the 11 week exposure period, intensity tended to be rate responsive)	Visual symptomology ([1]; 12 weeks of exposure, intensity tended to be rate responsive)	Shoot Fresh ([1]; 100 ppb acid equivalent) [grams]	Shoot Length ([1]; 100 ppb acid equivalent) [cm]	Shoot Fresh ([1]; 500 ppb acid equivalent) [grams]	Shoot Length ([1]; 500 ppb acid equivalent) [cm]	Reduction in both shoot length and fresh weight vs. the control ([1]; 500 ppb, 12 weeks of exposure)
O=C(O)c1c(Cl)ccc2cc(Cl)cnc12 [Quinclorac, 3,7-dichloroquinoline-8-carboxylic acid]	1.5	15.7	Significant reduction	15.0	8.9	6.5	significant effect on the growth of hydrilla	reduction in plant vigour and auxinic-like twisting of leaf tissue						
Cc1cnc2c(C(=O)O)c(Cl)ccc2c1 [Quinmerac, 7-chloro-3-methylquinoline-8-carboxylic acid]	0.5	8.9	Significant reduction						reduction in plant vigour and auxinic-like twisting of leaf tissue	5.1	15.0	0.1	6.5	Significant reduction
